Biological target: T1, Androgen Receptor (AR) (Homo sapiens, UniProt P10275)
T1 sequence (P10275 1-920): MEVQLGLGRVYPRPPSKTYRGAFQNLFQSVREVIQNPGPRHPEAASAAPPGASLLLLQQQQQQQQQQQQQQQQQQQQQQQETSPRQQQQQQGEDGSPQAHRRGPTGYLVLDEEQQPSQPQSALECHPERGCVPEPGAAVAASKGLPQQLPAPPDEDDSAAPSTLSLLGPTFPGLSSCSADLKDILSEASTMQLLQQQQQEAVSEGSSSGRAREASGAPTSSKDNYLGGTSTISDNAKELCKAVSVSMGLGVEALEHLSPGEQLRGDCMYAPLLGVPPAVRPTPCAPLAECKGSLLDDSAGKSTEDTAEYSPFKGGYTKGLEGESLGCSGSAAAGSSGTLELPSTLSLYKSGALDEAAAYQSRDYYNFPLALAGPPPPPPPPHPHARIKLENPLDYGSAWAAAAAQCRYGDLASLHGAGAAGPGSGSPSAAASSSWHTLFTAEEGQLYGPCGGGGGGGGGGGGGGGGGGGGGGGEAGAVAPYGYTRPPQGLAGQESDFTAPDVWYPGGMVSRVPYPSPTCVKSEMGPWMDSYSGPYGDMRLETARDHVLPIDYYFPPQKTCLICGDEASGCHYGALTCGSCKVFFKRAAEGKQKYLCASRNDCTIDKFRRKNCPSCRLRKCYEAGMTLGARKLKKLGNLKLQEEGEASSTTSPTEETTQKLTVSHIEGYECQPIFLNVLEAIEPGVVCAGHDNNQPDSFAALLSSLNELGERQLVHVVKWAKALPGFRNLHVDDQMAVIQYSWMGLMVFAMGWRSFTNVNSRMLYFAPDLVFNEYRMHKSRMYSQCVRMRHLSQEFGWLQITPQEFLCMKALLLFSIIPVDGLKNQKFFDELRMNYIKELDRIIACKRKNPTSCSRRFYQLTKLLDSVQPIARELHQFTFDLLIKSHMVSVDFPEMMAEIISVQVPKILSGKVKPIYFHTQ
Experiment: Pharmacodynamic efficacy: AR degradation in tumor of VCaP xenograft model after oral administration
Format: in vivo, CB17/SCID mice
Parameters: After sacrifice, tumor tissue was collected, washed in PBS, and stored at -80°C; from tissue; host or cells: VCaP xenograft tumour from CB17/SCID mice
Settings: 10 mg/kg orally once daily for three days, tumor collected 6 hours after final administration
Procedure: The protocol for the creation of a xenograft model and pharmacodynamic experiments using VCaP cells was as follows.
[Cell Culture] VCaP cells were resuspended at a density of 4 x 10^5/mL in a mixture of DMEM MEDIUM (Hyclone, SH30243.01), 10% FBS (Hyclone, SV30207.02), 1% Penicillin-streptomycin (Welgene, LS 202-02), and 1x Non-essential amino acid solution (100x) (Sigma, M7145-100mL). 50 mL of the cells were seeded into CELLBIND cell culture flasks (150 cm^2) (Corning, 3291) and cultured for 5 days.
[Xenotransplantation] The media was removed from the flask containing cultured VCaP cells and washed with 10 mL of PBS (Welgene, LB001-02). After removing the PBS, 2 mL of 1x 0.05% Trypsin-EDTA (Welgene, LS015-01) was added and treated in a cell incubator for 3 minutes. Then, 10 mL of media was added, pipetted, and placed in a 50 mL tube. The pellets were collected by centrifugation at 500 g for 5 minutes. The collected pellets were washed once more with 20 mL of PBS. The washed pellets were collected by centrifugation at 500 g for 5 minutes. The PBS was removed, and 500 µL of HBSS (Gibco, 14025092) was added and pipetted. After diluting 100-fold in HBSS and measuring the cell count, the concentration was calculated as 3 x 10^6/50 µL/mouse, diluted in HBSS, and stored in an ice bucket. An equal volume of matrigel (R&D system, 3432-005-01) was added to the stored cells, homogenized by pipetting, and then 100 µL per mouse was inoculated subcutaneously into the right flank of CB17/SCID mice.
[Measurement of tumor size and division into groups] After 2-3 weeks of inoculation with cancer cells, the transplanted cancer cells grew and were measured in size using a caliper. The measured tumor size was calculated as [long axis x short axis^2 x 0.5]. When the tumor size exceeded approximately […], the experimental animals were divided into groups based on the average tumor size and the concentration of the drug to be administered. The groups always included a group containing only the solvent (vehicle) without the drug.
[Drug Preparation and Administration] The drug was dissolved in a solvent and orally administered to each experimental animal in a volume of 200 µL (approximately 8 mL/kg). The solvent composition was 3% DMSO (Sigma, D8418), 10% Cremophor EL (Sigma, C5135), 20% PEG400 (Sigma, 06855-1KG), and 67% distilled water. The preparation method was as follows. Depending on the drug concentration (e.g., 10 or 30 mg/kg), each drug was weighed and dissolved in DMSO corresponding to 3% of the total solvent volume. […]
[Cancer Tissue Extraction] […] Changes in tumor size were measured during the prescribed administration period, and the mice were sacrificed 6 hours after the final administration. […]

SMILES | AR degradation in tumor (%)
N#Cc1ccc(N2CCC(C(=O)Nc3ccc(OC4CCN(CC5CCN(c6ccc(NC7CCC(=O)NC7=O)cc6F)CC5)CC4)cn3)CC2)cc1C(F)(F)F (stereo not shown) [Example 1, 1-(4-cyano-3-(trifluoromethyl)phenyl)-N-(5-((1-((1-(4-((2,6-dioxopiperidin-3-yl)amino)-2-fluorophenyl)piperidin-4-yl)methyl)piperidin-4-yl)oxy)pyridin-2-yl)piperidine-4-carboxamide] | 86%
N#Cc1ccc(N2CCC(C(=O)Nc3ccc(OC4CCN(CC5CCN(c6ccc(N[C@@H]7CCC(=O)NC7=O)cc6F)CC5)CC4)cn3)CC2)cc1C(F)(F)F [Example 3, (R)-1-(4-cyano-3-(trifluoromethyl)phenyl)-N-(5-((1-((1-(4-((2,6-dioxopiperidin-3-yl)amino)-2-fluorophenyl)piperidin-4-yl)methyl)piperidin-4-yl)oxy)pyridin-2-yl)piperidine-4-carboxamide] | 89%
N#Cc1ccc(N2CCC(C(=O)Nc3ccc(OC4CCN(CC5CCN(c6ccc(N[C@H]7CCC(=O)NC7=O)cc6F)CC5)CC4)cn3)CC2)cc1Cl [Example 9, (S)-1-(3-chloro-4-cyanophenyl)-N-(5-((1-((1-(4-((2,6-dioxopiperidin-3-yl)amino)-2-fluorophenyl)piperidin-4-yl)methyl)piperidin-4-yl)oxy)pyridin-2-yl)piperidine-4-carboxamide] | 97%
N#Cc1ccc(N2CCC(C(=O)Nc3ccc(OC4CCN(CC5CCN(c6ccc(N[C@H]7CCC(=O)NC7=O)cc6F)CC5)CC4)cn3)CC2)cc1C(F)(F)F [Example 2, (S)-1-(4-cyano-3-(trifluoromethyl)phenyl)-N-(5-((1-((1-(4-((2,6-dioxopiperidin-3-yl)amino)-2-fluorophenyl)piperidin-4-yl)methyl)piperidin-4-yl)oxy)pyridin-2-yl)piperidine-4-carboxamide] | 96%

From patent publication EP4772505A1, “COMPOUND FOR DEGRADING ANDROGEN RECEPTOR AND MEDICAL USE THEREOF” (Ubix Therapeutics, Inc., priority 2023, dated 2025)
